Measurements reported in US8912200B2, “Alkynyl substituted pyrimidinyl-pyrroles active as kinases inhibitors” (Nerviano Medical Sciences S.R.L., priority 2011, dated 2014).

Tests used:
JAK2 kinase domain = target: T1, JAK2 kinase domain (Homo sapiens, UniProt O60674); test: Biochemical assay for inhibitors of JAK kinase activity (JAK2, 33P-γ-ATP/dowex resin); details: JAK2 kinase domain 1 nM, 60 μM ATP
T1 construct: commercially available JAK2 kinase domain; purchased Invitrogen, Eugene, Oreg
In short: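 Human JAK2 (1 nM) phosphorylated peptide BioDBn*306 (64 μM) with 60 μM ATP plus 3 nM 33P-γ-ATP in HEPES pH 7.5/MgCl2/DTT buffer, 60 min at room temperature. Unreacted ATP captured by Dowex resin; supernatant β-counted. IC50 from sigmoidal fit of ten-point 1:3 dilution curves.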

[1] = system: JAK2 dependent human megakaryoblastic leukemia cell line SET-2; test: Cell proliferation assay (CellTiter-Glo, 72 hours); type: cell-based; details: SET-2 cells
In short: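 About 5×10^3 SET-2 cells per well, in RPMI-1640 with 10% FBS, were exposed to inhibitor dilutions for 72 hours at 37 °C, 5% CO2. Viability read by CellTiter-Glo luminescence. IC50 from sigmoidal fitting of 8-point dilution curves.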

Lyn full length = target: T2, Lyn full length (Homo sapiens, UniProt P07948); test: Biochemical assay for inhibitors of Lyn (Src family) kinase activity; details: Lyn full length 1 nM, 25 μM ATP
T2 construct: The assay has been performed using Lyn full length
Source text: Biochemical Assay for Inhibitors of Lck and Lyn (Src Family) Kinases Activity
Specific Lck and Lyn substrates are trans-phosphorylated by Lck and Lyn kinases in the presence of ATP traced with 33P-γ-ATP. At the end of the phosphorylation reaction, the unreacted ATP, cold and radioactive, is captured by an excess of dowex ion exchange resin that eventually settles by gravity to the bottom of the reaction plate. The supernatant is subsequently withdrawn and transferred into a counting plate that is then evaluated by β-counting.
Lyn Specific Assay Conditions
The assay has been performed using Lyn full length (accession number P07948 of UniProtKB/Swiss-Prot database).
Kinase buffer was composed of 50 mM HEPES pH 7.5 containing 3 mM MgCl2, 1 mM DTT, 3 μM Na3VO4, and 0.2 mg/mL BSA.
The Lyn kinase assay was run with a final enzyme concentration of 1 nM, in the presence of 25 μM ATP, 1.5 nM 33P-γ-ATP and 250 μM of substrate ABI 1 (Aminoacid sequence: EAIYAAPFAKKK—SEQ ID NO: 3). The peptidic substrate was purchased from American Peptide Company (Sunnyvale, Calif.).
For IC50 determination, test compounds are received as a 1 mM solution in 100% DMSO, distributed into 96 well plates: compounds are then plated into the first column of a microtiter plate (A1 to G1), 100 μL/well.
An automated station for serial dilutions (Biomek FX, Beckman) is used for producing 1:3 dilutions in 100% DMSO, from line A1 to A10, and for all the compounds in the column. Moreover, 4-5 copies of daughter plates are prepared by reformatting 5 μL of this first set of 100% DMSO dilution plates into 384 deep well-plates: one of these plates with the serial dilutions of test compounds will be thawed the day of the experiments, reconstituted at a 3× concentration with water and used in the IC50 determination assays. In a standard experiment, the highest concentration (3×) of all compounds is 30 μM, while the lowest one is 1.5 nM. Each 384 well-plate will contain at least one curve of the standard inhibitor staurosporine and reference wells (total enzyme activity vs. no enzymatic activity) for the Z′ and signal to background evaluation.
384-well plates, V bottom (test plates) are prepared with 5 μL of the compound dilution (3×) and then placed onto a PlateTrak 12 robotized station (Perkin Elmer; the robot has one 384-tip pipetting head for starting the assay plus one 96-tip head for dispensing the resin) together with one reservoir for the Enzyme mix (3×) and one for the ATP mix (3×). At the start of the run, the robot aspirates 5 μL of ATP mix, makes an air gap inside the tips (3 μl) and aspirates 5 μL of JAK2 mix. The following dispensation into the plates plus 3 cycles of mixing, done by the robot itself, starts the kinase reaction. At this point, the correct concentrations are restored for all the reagents. The robot incubates the plates for 60 minutes at room temperature, and then stops the reaction by pipetting 60 μL of dowex resin suspension into the reaction mix. In order to avoid tip clogging, wide bore tips are used to dispense the resin suspension. Three cycles of mixing are done immediately after the addition of the resin. Another mixing cycle is performed after all the plates are stopped, this time using normal tips: the plates are then allowed to rest for about one hour in order to allow resin sedimentation. At this point, 27 μL of the supernatant are transferred into 384-Optiplates (Perkin-Elmer), with 50 μL of Microscint 40 (Perkin-Elmer); after 5 min of orbital shaking the plates are read on a Perkin-Elmer Top Count radioactivity counter.
Data are analyzed by an internally customized version of the SW package “Assay Explorer” that provides sigmoidal fitting of the ten-dilutions curves for IC50 determination in the secondary assays/hit confirmation routines.

T2 sequence (P07948 whole entry): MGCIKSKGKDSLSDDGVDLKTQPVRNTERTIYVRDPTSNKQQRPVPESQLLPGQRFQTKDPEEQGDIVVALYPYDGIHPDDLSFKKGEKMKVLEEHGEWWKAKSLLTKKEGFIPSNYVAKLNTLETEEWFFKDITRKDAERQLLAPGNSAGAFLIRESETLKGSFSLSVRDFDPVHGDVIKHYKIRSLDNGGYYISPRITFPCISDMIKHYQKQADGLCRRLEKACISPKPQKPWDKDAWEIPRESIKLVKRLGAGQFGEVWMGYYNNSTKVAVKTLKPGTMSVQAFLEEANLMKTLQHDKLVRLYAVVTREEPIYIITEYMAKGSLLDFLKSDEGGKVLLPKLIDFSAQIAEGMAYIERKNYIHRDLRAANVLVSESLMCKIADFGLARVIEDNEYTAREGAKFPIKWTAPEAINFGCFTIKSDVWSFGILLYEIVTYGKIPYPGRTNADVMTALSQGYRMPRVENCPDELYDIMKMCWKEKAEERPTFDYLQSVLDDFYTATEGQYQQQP
T1 sequence (O60674 849-1124 limits assumed): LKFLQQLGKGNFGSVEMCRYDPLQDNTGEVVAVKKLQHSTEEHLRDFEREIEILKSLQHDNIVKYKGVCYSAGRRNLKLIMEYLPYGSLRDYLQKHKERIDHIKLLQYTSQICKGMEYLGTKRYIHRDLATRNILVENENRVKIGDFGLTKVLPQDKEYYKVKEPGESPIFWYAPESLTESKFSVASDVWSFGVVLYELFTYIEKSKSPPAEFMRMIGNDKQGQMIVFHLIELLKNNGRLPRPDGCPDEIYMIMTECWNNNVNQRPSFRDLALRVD

| Compound | IC50 (JAK2 kinase domain) | IC50 ([1]; Homo sapiens) | IC50 (Lyn full length) | IC50 [1] |
| --- | --- | --- | --- | --- |
| Cc1ccc(Cl)cc1-c1[nH]c(-c2nc(N)ncc2C#Cc2cccc(O)c2)cc1C(N)=O [compound 2, 5-{2-Amino-5-[(3-hydroxyphenyl)ethynyl]pyrimidin-4-yl}-2-(5-chloro-2-methylphenyl)-1H-pyrrole-3-carboxamide] | 2 nM | 520 nM | 6 nM | – |
| CCc1ccc(Cl)cc1-c1[nH]c(-c2ccnc(N)n2)c(C#Cc2ccc(N3CCN(C)CC3)cc2)c1C(N)=O [compound 103, 5-(2-Aminopyrimidin-4-yl)-2-(5-chloro-2-ethylphenyl)-4-{[4-(4-methylpiperazin-1-yl)phenyl]ethynyl}-1H-pyrrole-3-carboxamide] | 4 nM | 180 nM | 23 nM | – |
| Cc1ccc(Cl)cc1-c1[nH]c(-c2ccnc(N)n2)c(C#Cc2ccc(N3CCNCC3)cc2)c1C(N)=O [compound 99, 5-(2-Aminopyrimidin-4-yl)-2-(5-chloro-2-methylphenyl)-4-{[4-(piperazin-1-yl)phenyl]ethynyl}-1H-pyrrole-3-carboxamide] | 2 nM | 410 nM | 26 nM | – |
| Cc1ccc(Cl)cc1-c1[nH]c(-c2nc(N)ncc2C#CCN2CCN(C)CC2)cc1C(N)=O [compound 50, 5-{2-Amino-5-[3-(4-methylpiperazin-1-yl)prop-1-yn-1-yl]pyrimidin-4-yl}-2-(5-chloro-2-methylphenyl)-1H-pyrrole-3-carboxamide] | 7 nM | 1380 nM | 26 nM | – |
| Cc1ccc(Cl)cc1-c1[nH]c(-c2nc(N)ncc2C#Cc2cccc(OC3CCN(C)CC3)c2)cc1C(N)=O [compound 32, 5-[2-Amino-5-({3-[(1-methylpiperidin-4-yl)oxy]phenyl}ethynyl)pyrimidin-4-yl]-2-(5-chloro-2-methylphenyl)-1H-pyrrole-3-carboxamide] | 4 nM | 160 nM | 6 nM | – |
| COc1cc(N2CCN(C)CC2)ccc1C#Cc1c(-c2ccnc(N)n2)[nH]c(-c2cc(Cl)ccc2C)c1C(N)=O [compound 89, 5-(2-Aminopyrimidin-4-yl)-2-(5-chloro-2-methylphenyl)-4-{[2-methoxy-4-(4-methylpiperazin-1-yl)phenyl]ethynyl}-1H-pyrrole-3-carboxamide] | 6 nM | 260 nM | 4 nM | – |
| [(2-Aminophenyl)ethynyl]-4-(2-Amino-phenylethynyl)-5-(2-amino-pyrimidin-4-yl)-2-(5-chloro-2-methyl-phenyl)-1H-pyrrole-3-carboxamide [compound 74] | 4 nM | – | 13 nM | 120 nM |
| Cc1ccc(Cl)cc1-c1[nH]c(-c2nc(N)ncc2C#Cc2ccc(OC3CCN(C)CC3)cc2)cc1C(N)=O [compound 48, 5-[2-Amino-5-({4-[(1-methylpiperidin-4-yl)oxy]phenyl}ethynyl)pyrimidin-4-yl]-2-(5-chloro-2-methylphenyl)-1H-pyrrole-3-carboxamide] | 6 nM | 160 nM | 8 nM | – |
| Cc1ccc(Cl)cc1-c1[nH]c(-c2nc(N)ncc2C#Cc2ccc(N)cc2)cc1C(N)=O [compound 8, 5-{2-Amino-5-[(4-aminophenyl)ethynyl]pyrimidin-4-yl}-2-(5-chloro-2-methylphenyl)-1H-pyrrole-3-carboxamide] | 1 nM | 140 nM | 2 nM | – |

The remaining compounds from weak to strong by IC50 (JAK2 kinase domain), led by results:

| IC50 (JAK2 kinase domain) | IC50 ([1]; Homo sapiens) | IC50 (Lyn full length) | Compound | IC50 [1] |
| --- | --- | --- | --- | --- |
| 11 nM | 240 nM | 9 nM | Cc1ccc(Cl)cc1-c1[nH]c(-c2nc(N)ncc2C#Cc2ccc(N3CCN(C)CC3)cc2F)cc1C(N)=O [compound 42, 5-(2-Amino-5-{[2-fluoro-4-(4-methylpiperazin-1-yl)phenyl]ethynyl}pyrimidin-4-yl)-2-(5-chloro-2-methylphenyl)-1H-pyrrole-3-carboxamide] | – |
| 8 nM | 400 nM | 281 nM | Cc1ccc(Cl)cc1-c1[nH]c(-c2ccnc(N)n2)c(C#Cc2ccc(N3CCC(N4CCN(C)CC4)CC3)cc2)c1C(N)=O [compound 95, 5-(2-Aminopyrimidin-4-yl)-2-(5-chloro-2-methylphenyl)-4-({4-[4-(4-methylpiperazin-1-yl)piperidin-1-yl]phenyl}ethynyl)-1H-pyrrole-3-carboxamide] | – |
| 5 nM | 200 nM | 25 nM | CCc1ccc(Cl)cc1-c1[nH]c(-c2ccnc(N)n2)c(C#Cc2ccccc2NCCN(C)C)c1C(N)=O [compound 101, 5-(2-Aminopyrimidin-4-yl)-2-(5-chloro-2-ethylphenyl)-4-[(2-{[2-(dimethylamino)ethyl]amino}phenyl)ethynyl]-1H-pyrrole-3-carboxamide] | – |
| 5 nM | 230 nM | 93 nM | Cc1ccc(Cl)cc1-c1[nH]c(-c2ccnc(N)n2)c(C#Cc2cc(N3CCN(C)CC3)ccc2F)c1C(N)=O [compound 93, 5-(2-Aminopyrimidin-4-yl)-2-(5-chloro-2-methylphenyl)-4-{[2-fluoro-5-(4-methylpiperazin-1-yl)phenyl]ethynyl}-1H-pyrrole-3-carboxamide] | – |
| 2 nM | 330 nM | 5 nM | Cc1ccc(Cl)cc1-c1[nH]c(-c2nc(N)ncc2C#Cc2cccc(CN3CCN(C)CC3)c2)cc1C(N)=O [compound 24, 5-[2-Amino-5-({3-[(4-methylpiperazin-1-yl)methyl]phenyl}ethynyl)pyrimidin-4-yl]-2-(5-chloro-2-methylphenyl)-1H-pyrrole-3-carboxamide] | – |
| 2 nM | 170 nM | 10 nM | Cc1ccc(Cl)cc1-c1[nH]c(-c2nc(N)ncc2C#Cc2ccc(N3CCC(N4CCN(C)CC4)CC3)cc2)cc1C(N)=O [compound 25, 5-[2-Amino-5-({4-[4-(4-methylpiperazin-1-yl)piperidin-1-yl]phenyl}ethynyl)pyrimidin-4-yl]-2-(5-chloro-2-methylphenyl)-1H-pyrrole-3-carboxamide] | – |
| 2 nM | 240 nM | 5 nM | Cc1ccc(Cl)cc1-c1[nH]c(-c2nc(N)ncc2C#Cc2cccc(NCCO)c2)cc1C(N)=O [compound 15, 5-[2-Amino-5-({3-[(2-hydroxyethyl)amino]phenyl}ethynyl)pyrimidin-4-yl]-2-(5-chloro-2-methylphenyl)-1H-pyrrole-3-carboxamide] | – |
| 1 nM | 210 nM | 1 nM | COc1ccc(N2CCN(C)CC2)cc1C#Cc1c(-c2ccnc(N)n2)[nH]c(-c2cc(Cl)ccc2C)c1C(N)=O [compound 86, 5-(2-Aminopyrimidin-4-yl)-2-(5-chloro-2-methylphenyl)-4-{[2-methoxy-5-(4-methylpiperazin-1-yl)phenyl]ethynyl}-1H-pyrrole-3-carboxamide] | – |
| 1 nM | 330 nM | 1 nM | Cc1ccc(Cl)cc1-c1[nH]c(-c2nc(N)ncc2C#Cc2ccc(N3CCC(O)CC3)cc2)cc1C(N)=O [compound 28, 5-(2-Amino-5-{[4-(4-hydroxypiperidin-1-yl)phenyl]ethynyl}pyrimidin-4-yl)-2-(5-chloro-2-methylphenyl)-1H-pyrrole-3-carboxamide] | – |
